From patent publication US20130005802A1, “TREATMENT OF WNT/FRIZZLED-RELATED DISEASES” (priority 2009, published 2013)
Like-named read-outs stand apart in the source and are kept apart here.

How the values were obtained:
HCT116 cells [1] = assay: Flow-based cytotoxicity assay (annexin V), HCT116; assay type: cell-based; conditions: 3 days, 0.2-20 μM
Experimental: (§1) After 3 days incubation, all cells were harvested with 0.05% trypsin/EDTA and spun down by centrifugation. Cells were labeled with biotin-conjugated Annexin V, and then stained with 7-AAD and Streptavidin-APC. Samples were acquired by FACSCalibur machine (BD Bioscience) and analyzed with CellQuest software. Cells were analyzed for expression of Annexin V as a marker of apoptosis.
(§2) Annexin V may be used as a marker for apoptosis and other forms of cell death. […] After 3 days of incubation, all cells were harvested with 0.05% trypsin/EDTA, labeled with biotin-conjugated Annexin V, and then stained with 7-AAD and streptavidin-APC. Samples were acquired by FACSCalibur, and percentages of annexin V-positive cells were analyzed and plotted as shown in FIG. 11. Cells were analyzed for expression of Annexin V as a marker of apoptosis.

CRC119 tumor cells = assay: Flow-based cytotoxicity assay (annexin V), CRC119; assay type: cell-based; conditions: 3 days, 0.2-20 μM
Experimental: as §1, §2

CaCO2 cells = assay: MTT assay, CaCO2; assay type: cell-based; conditions: for IC50: Homo sapiens, Caco-2, 72 h
Experimental: (§3) AsPC-1 tumor cells were cultured with T cells at a 1:5 ratio for 7 days in the presence of MEDI-565 or Cont BiTE (100 ng/mL). On day 7, floating cells were discarded and only adherent AsPC-1 cells were harvested with 0.05% trypsin/EDTA and washed with PBS three times. 1×10^4 AsPC-1 tumor cells were added to each well of 96 well flat bottom plates in 200 μL of complete RPMI1640 medium. The cells were allowed to adhere to the plates overnight at 37° C. (day 0) and were further incubated for 1, 2, 4 or 7 days. 20 μL of 10×MTT (3-[4,5-dimethylthiazol-2-yl]-2,5-diphenyl-tetrazolium bromide, 5 mg/mL) solution was added to each well, and incubated at 37° C. for 2 hr. The adherent cells were lysed with 150 μL of dimethyl sulfoxide (DMSO) and the optical density (OD) at 550 nm was measured.
(§4) Colorectal cancer cell lines were incubated in 96-well flat-bottomed plates at 5,000 cells per well in 200 μL of complete RPMI1640 medium. The cells were allowed to adhere to the plates overnight at 37° C. (day 0). […] Then 20 μL of 10×MTT solution was added to each well and incubated at 37° C. for 2 hr. The adherent cells were lysed with 150 μL of DMSO, and then optical density (OD) at 562 nm was measured. DMSO or culture medium was used as a control.
(§5) MTT assay was performed at each time point.
An MTT assay was performed after 72 hr incubation. After cell lysis with DMSO, the optical density (OD) at 562 nm was measured.

β-catenin [2] = assay: Immunoblot of Wnt3A-stimulated β-catenin stabilization in U2OS cells; assay type: cell-based
Text: After treatment, cytosolic fraction as well as cellular membrane were isolated as described (Mikels, A. J., et al. PLoS Biol 2006, 4, e115, incorporated herein by reference in its entirety). Immunoblots using β-catenin or Dishevelled-2 antibody were used to detect the respective protein levels in cytosol or on membrane, with β-actin immunoblots used for loading controls.
The accumulation of cytosolic β-catenin is a measure of canonical Wnt signaling (Mikels, A. J., and Nusse, R. PLoS Biol 2006, 4, e115, incorporated herein by reference).

CRC039 tumors = assay: In vivo anti-tumor effect, CRC039 explant tumors; design: species or system NOD/SCID mice; conditions: 10, 100 or 200 mg/kg gavage, 6 days per week, 3 weeks
Experimental: HCT116 colon cancer cells were harvested from flasks with 0.05% Trypsin/EDTA, washed with PBS, and resuspended with Hanks buffered solution at 5×10^6 cells/100 μL concentration. CRC explants (CRC039) cultured in vitro were harvested with the same procedure, and mixed with equal volume of Matrigel to make 1×10^6 cells/100 μL concentration. A hundred μL of cell suspension was inoculated to the flank of NOD/SCID mice 4 days before the start of treatment. […] Tumor size was measured 3 times a week until mice were sacrificed.
HCT116 colon cancer cells were harvested from flasks with 0.05% Trypsin/EDTA and resuspended with Hanks buffered solution at 5×10^6 cells/100 μL concentration. CRC explants (CRC039) cultured in vitro were harvested with the same procedure and mixed with equal volume of Matrigel to make 1×10^6 cells/100 μL concentration. The cell suspension (100 μL) was inoculated into the flank of NOD/SCID mice 4 days before the start of treatment. […] Initially, 2 weeks of treatment was planned for both HCT116 and CRC039. However, treatment was extended to 3 weeks for CRC039 cells because the […] grew much slower than the HCT116 cell line. Tumor size was measured 3 times a week until mice were euthanized.

in vivo = conditions: NOD/SCID, mouse, po, 200 mg/kg
Experimental: Blood samples were obtained from vena cava following euthanasia by ketamin injection at predose and at 0.25, 0.5, 0.75, 1, 1.5, 4, 8, 12, 24 hr after drug administration. Blood samples were put into eppendorf tubes containing 10 μL of heparin (1000 U/mL), centrifuged at 1,200 g for 10 min. Plasma were collected and frozen at −20° C. until HPLC analysis.
The Calibration curve was linear from 0.2 ng/mL (lower limit of quantitation, LLOQ) to 300 ng/mL.
Blood samples were obtained from vena cava at predose and at 0.25, 0.5, 0.75, 1, 1.5, 4, 8, 12, 24 hr after drug administration. Plasma was collected by the centrifugation (1,200 g, 10 min) of blood with heparin (100 U/mL).

fibroblasts = assay: Flow-based cytotoxicity assay (annexin V), fibroblasts; assay type: cell-based; conditions: 3 days, 0.2-20 μM
Experimental: as §1, §2

Dvl-2 = assay: Western blot of cytosolic Dvl-2 in colorectal cancer cells; assay type: cell-based
Experimental: (§6) CRC explants and colorectal cancer cell lines were cultured in 6-well plates. […] After washing cells with PBS three times, hypotonic lysis buffer consist of 10 mM Tris-HCl, pH7.4 and 0.2 mM MgCl2, supplemented with 1× Halt Protease and Phosphatase Inhibitor Cocktail (Thermo Scientific Pierce Protein Research Products, Rockford, Ill.) were applied to make cell lyates for Western Blot.
(§7) After washing cells with PBS, cell lysates were made with hypotonic lysis buffer.

β-catenin [3] = assay: Western blot of cytosolic β-catenin in colorectal cancer cells; assay type: cell-based
Experimental: as §6, §7

HCT116 cells [4] = assay: MTT assay, HCT116; assay type: cell-based
Experimental: as §3, §4, §5

[5] = CRC057 and HCT116, 1, 5, 10 μM, 18 hr

Q: With `O=C(Nc1ccc([N+](=O)[O-])cc1Cl)c1cc(Cl)ccc1O` [niclosamide] as the molecule, how does the “concentration with steep increase of annexin V-positive cells” value (HCT116 cells [1]) read?
A: Its value is 0.2 µM.

Q: What about the “concentration with steep increase of annexin V-positive cells” value (CRC119 tumor cells) of the same molecule?
A: The value was 1 µM.

Q: And the “cytotoxic effect compared with 10 μM oxaliplatin” value (CaCO2 cells; 2 μM, 72 hr)?
A: The value was “stronger cytotoxic effect”.

Q: And the “proliferation (MTT, OD 562 nm)” value (CaCO2 cells; 0.4, 2, 10 μM, 72 hr)?
A: The value was “less proliferation”.

Q: What about the “% proliferation over time” value (CaCO2 cells; 0.4, 2, 10 μM, 24-96 hr) of the same molecule?
A: Its value is “sensitive”.

Q: What about the IC50 (CaCO2 cells; read-out: IC50 of niclosamide (MTT)) of the same molecule?
A: Its IC50 is 1 µM.

Q: And the IC50 (CaCO2 cells; read-out: IC50 of niclosamide (MTT) with oxaliplatin)?
A: Its IC50 is 0.5 µM.

Q: And the “Wnt3A-stimulated cytosolic β-catenin stabilization” value (β-catenin [2]; 7.5 μM, cytosol)?
A: The value was “prevented”.

Q: What about the “membrane-bound β-catenin levels” value (β-catenin [2]; 7.5 μM, membrane) of the same molecule?
A: Its value is “relatively unchanged”.

Q: What about the “concentration range of the inhibitory effect on β-catenin stabilization” value (β-catenin [2]; immunoblot, n=3) of the same molecule?
A: The value was 1 to 7.5 µM.

Q: What about the IC50 (β-catenin [2]; immunoblot, n=3, read-out: half maximal inhibition of Wnt3A signaling (β-catenin stabilization)) of the same molecule?
A: Its IC50 is roughly 1 µM.

Q: What about the tumor growth (CRC039 tumors) of the same molecule?
A: The tumor growth was “significantly inhibited the growth”.

Q: What about the Cmax (in vivo) of the same molecule?
A: The Cmax was 0.894 µg/mL.

Q: And the “Elimination rate (z-lambda)” value (in vivo)?
A: Its value is 0.217 h⁻¹.

Q: What about the Tmax (in vivo) of the same molecule?
A: Its Tmax is 0.25 h.

Q: And the concentration at 1.5 hr (in vivo)?
A: The concentration at 1.5 hr was 0.0776 µg/mL.

Q: What about the half-life (in vivo) of the same molecule?
A: Its half-life is 3.2 h.

Q: What about the “apoptotic cell death (annexin V)” value (fibroblasts) of the same molecule?
A: Its value is “did not show a significant increase”.

Q: And the “cytosolic Dvl-2 expression” value (Dvl-2; [5])?
A: The value was “downregulated”.

Q: What about the “cytosolic Dvl-2 expression” value (Dvl-2; HT29 cells) of the same molecule?
A: Its value is “milder change”.

Q: What about the “cytosolic β-catenin expression” value (β-catenin [3]; [5]) of the same molecule?
A: Its value is “downregulated”.

Q: What about the “cytosolic β-catenin expression” value (β-catenin [3]; HT29 cells) of the same molecule?
A: Its value is “milder change”.

Q: And the “cytotoxic effect compared with 10 μM oxaliplatin” value (HCT116 cells [4]; 2 μM, 72 hr)?
A: Its value is “stronger cytotoxic effect”.

Q: And the “proliferation (MTT, OD 562 nm), sensitivity among three cell lines” value (HCT116 cells [4]; 0.4, 2, 10 μM, 72 hr)?
A: Its value is “most sensitive”.

Q: What about the “% proliferation over time” value (HCT116 cells [4]; 0.4, 2, 10 μM, 24-96 hr) of the same molecule?
A: Its value is “sensitive”.

Q: What about the “concentration at which cells were killed over time” value (HCT116 cells [4]; 24-96 hr) of the same molecule?
A: Its value is 0.4 µM.
